In the supplement of paper PMC6045584:
± gives the standard deviation of the averaged measurements.

Assays:
DECITABINE = compound: Nc1ncn([C@H]2C[C@H](O)[C@@H](CO)O2)c(=O)n1 [DECITABINE]; assay: surviving fraction relative to DMSO-only wells; higher = less growth inhibition; details: exposure time: 5 days
Procedure, shortened: (§1)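 For each tumour cell line, log-phase cells were put into 384-well plates at 250–500 cells per well, then after 24 hours exposed continuously for five days to inhibitors at 0.5, 1, 5, 10, 50, 100, 500 and 1000 nM. Viability was assessed by CellTiter-Glo luminescence, with surviving fraction expressed relative to the median of DMSO-only wells. Lines were screened three times and retained only if replicate Pearson r exceeded 0.7 and median Z' exceeded 0.3.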

RESVERATROL = compound: Oc1ccc(/C=C/c2cc(O)cc(O)c2)cc1 [RESVERATROL]; assay: as above; details: exposure time: 5 days
Procedure, shortened: as §1

Test System: CCK81 LARGE INTESTINE
- surviving fraction (DECITABINE; 0.5 nM): 0.759 ± 0.099
- surviving fraction (DECITABINE; 1 nM): 0.761 ± 0.034
- surviving fraction (DECITABINE; 5 nM): 0.578 ± 0.11
- surviving fraction (DECITABINE; 10 nM): 0.707 ± 0.12
- surviving fraction (DECITABINE; 50 nM): 0.367 ± 0.058
- surviving fraction (DECITABINE; 100 nM): 0.348 ± 0.035
- surviving fraction (DECITABINE; 500 nM): 0.308 ± 0.035
- surviving fraction (DECITABINE; 1000 nM): 0.286 ± 0.094
- surviving fraction (RESVERATROL; 0.5 nM): 0.73 ± 0.017
- surviving fraction (RESVERATROL; 1 nM): 0.79 ± 0.13
- surviving fraction (RESVERATROL; 5 nM): 0.71 ± 0.065
- surviving fraction (RESVERATROL; 10 nM): 0.724 ± 0.037
- surviving fraction (RESVERATROL; 50 nM): 0.671 ± 0.058
- surviving fraction (RESVERATROL; 100 nM): 0.793 ± 0.11
- surviving fraction (RESVERATROL; 500 nM): 0.844 ± 0.085
- surviving fraction (RESVERATROL; 1000 nM): 0.728 ± 0.039

Test System: G292 BONE
- surviving fraction (DECITABINE; 0.5 nM): 0.958 ± 0.057
- surviving fraction (DECITABINE; 1 nM): 0.953 ± 0.026
- surviving fraction (DECITABINE; 5 nM): 0.924 ± 0.037
- surviving fraction (DECITABINE; 10 nM): 0.922 ± 0.025
- surviving fraction (DECITABINE; 50 nM): 0.711 ± 0.0099
- surviving fraction (DECITABINE; 100 nM): 0.678 ± 0.043
- surviving fraction (DECITABINE; 500 nM): 0.571 ± 0.039
- surviving fraction (DECITABINE; 1000 nM): 0.543 ± 0.026
- surviving fraction (RESVERATROL; 0.5 nM): 0.995 ± 0.051
- surviving fraction (RESVERATROL; 1 nM): 0.988 ± 0.011
- surviving fraction (RESVERATROL; 5 nM): 1.06 ± 0.018
- surviving fraction (RESVERATROL; 10 nM): 1.07 ± 0.032
- surviving fraction (RESVERATROL; 50 nM): 1.01 ± 0.027
- surviving fraction (RESVERATROL; 100 nM): 1.055 ± 0.0077
- surviving fraction (RESVERATROL; 500 nM): 1.04 ± 0.017
- surviving fraction (RESVERATROL; 1000 nM): 1.03 ± 0.045

Test System: HCC38 BREAST
- surviving fraction (DECITABINE; 0.5 nM): 1.37 ± 0.092
- surviving fraction (DECITABINE; 1 nM): 1.14 ± 0.13
- surviving fraction (DECITABINE; 5 nM): 1.13 ± 0.098
- surviving fraction (DECITABINE; 10 nM): 0.937 ± 0.044
- surviving fraction (DECITABINE; 50 nM): 0.781 ± 0.019
- surviving fraction (DECITABINE; 100 nM): 0.656 ± 0.027
- surviving fraction (DECITABINE; 500 nM): 0.441 ± 0.0081
- surviving fraction (DECITABINE; 1000 nM): 0.409 ± 0.064
- surviving fraction (RESVERATROL; 0.5 nM): 1.21 ± 0.057
- surviving fraction (RESVERATROL; 1 nM): 1.37 ± 0.15
- surviving fraction (RESVERATROL; 5 nM): 1.48 ± 0.13
- surviving fraction (RESVERATROL; 10 nM): 1.56 ± 0.2
- surviving fraction (RESVERATROL; 50 nM): 1.37 ± 0.063
- surviving fraction (RESVERATROL; 100 nM): 1.2 ± 0.16
- surviving fraction (RESVERATROL; 500 nM): 1.24 ± 0.14
- surviving fraction (RESVERATROL; 1000 nM): 1.18 ± 0.18

Test System: HCC70 BREAST
- surviving fraction (DECITABINE; 0.5 nM): 1.07 ± 0.12
- surviving fraction (DECITABINE; 1 nM): 0.991 ± 0.14
- surviving fraction (DECITABINE; 5 nM): 1.1 ± 0.05
- surviving fraction (DECITABINE; 10 nM): 1.02 ± 0.092
- surviving fraction (DECITABINE; 50 nM): 0.967 ± 0.024
- surviving fraction (DECITABINE; 100 nM): 0.956 ± 0.087
- surviving fraction (DECITABINE; 500 nM): 0.844 ± 0.026
- surviving fraction (DECITABINE; 1000 nM): 0.679 ± 0.076
- surviving fraction (RESVERATROL; 0.5 nM): 1.09 ± 0.07
- surviving fraction (RESVERATROL; 1 nM): 1.11 ± 0.11
- surviving fraction (RESVERATROL; 5 nM): 1.14 ± 0.13
- surviving fraction (RESVERATROL; 10 nM): 1.04 ± 0.049
- surviving fraction (RESVERATROL; 50 nM): 1.13 ± 0.066
- surviving fraction (RESVERATROL; 100 nM): 1.06 ± 0.054
- surviving fraction (RESVERATROL; 500 nM): 1.11 ± 0.075
- surviving fraction (RESVERATROL; 1000 nM): 0.999 ± 0.022

Test System: HMLE3 BREAST
- surviving fraction (DECITABINE; 0.5 nM): 1.1 ± 0.049
- surviving fraction (DECITABINE; 1 nM): 1.03 ± 0.082
- surviving fraction (DECITABINE; 5 nM): 1.14 ± 0.03
- surviving fraction (DECITABINE; 10 nM): 1.14 ± 0.058
- surviving fraction (DECITABINE; 50 nM): 0.95 ± 0.12
- surviving fraction (DECITABINE; 100 nM): 0.922 ± 0.051
- surviving fraction (DECITABINE; 500 nM): 0.605 ± 0.055
- surviving fraction (DECITABINE; 1000 nM): 0.551 ± 0.054
- surviving fraction (RESVERATROL; 0.5 nM): 1.01 ± 0.067
- surviving fraction (RESVERATROL; 1 nM): 1.03 ± 0.089
- surviving fraction (RESVERATROL; 5 nM): 1.02 ± 0.051
- surviving fraction (RESVERATROL; 10 nM): 1.03 ± 0.061
- surviving fraction (RESVERATROL; 50 nM): 1.04 ± 0.096
- surviving fraction (RESVERATROL; 100 nM): 1.03 ± 0.13
- surviving fraction (RESVERATROL; 500 nM): 1.06 ± 0.055
- surviving fraction (RESVERATROL; 1000 nM): 1.12 ± 0.12

Test System: HMT3552 BREAST
- surviving fraction (DECITABINE; 0.5 nM): 1.06 ± 0.029
- surviving fraction (DECITABINE; 1 nM): 1.024 ± 0.01
- surviving fraction (DECITABINE; 5 nM): 1.09 ± 0.05
- surviving fraction (DECITABINE; 10 nM): 1.02 ± 0.057
- surviving fraction (DECITABINE; 50 nM): 1.27 ± 0.029
- surviving fraction (DECITABINE; 100 nM): 1.21 ± 0.037
- surviving fraction (DECITABINE; 500 nM): 1.18 ± 0.06
- surviving fraction (DECITABINE; 1000 nM): 1.14 ± 0.028
- surviving fraction (RESVERATROL; 0.5 nM): 1.06 ± 0.038
- surviving fraction (RESVERATROL; 1 nM): 1.12 ± 0.047
- surviving fraction (RESVERATROL; 5 nM): 1.09 ± 0.027
- surviving fraction (RESVERATROL; 10 nM): 1.03 ± 0.067
- surviving fraction (RESVERATROL; 50 nM): 1.07 ± 0.039
- surviving fraction (RESVERATROL; 100 nM): 1.17 ± 0.056
- surviving fraction (RESVERATROL; 500 nM): 1.12 ± 0.044
- surviving fraction (RESVERATROL; 1000 nM): 1.17 ± 0.055

Test System: HS57T BREAST
- surviving fraction (DECITABINE; 0.5 nM): 0.976 ± 0.049
- surviving fraction (DECITABINE; 1 nM): 0.99 ± 0.026
- surviving fraction (DECITABINE; 5 nM): 1.06 ± 0.027
- surviving fraction (DECITABINE; 10 nM): 0.972 ± 0.022
- surviving fraction (DECITABINE; 50 nM): 0.923 ± 0.086
- surviving fraction (DECITABINE; 100 nM): 0.904 ± 0.091
- surviving fraction (DECITABINE; 500 nM): 0.767 ± 0.045
- surviving fraction (DECITABINE; 1000 nM): 0.696 ± 0.078
- surviving fraction (RESVERATROL; 0.5 nM): 0.971 ± 0.038
- surviving fraction (RESVERATROL; 1 nM): 1.01 ± 0.073
- surviving fraction (RESVERATROL; 5 nM): 0.984 ± 0.11
- surviving fraction (RESVERATROL; 10 nM): 1.07 ± 0.028
- surviving fraction (RESVERATROL; 50 nM): 1.02 ± 0.034
- surviving fraction (RESVERATROL; 100 nM): 1.04 ± 0.063
- surviving fraction (RESVERATROL; 500 nM): 1.01 ± 0.047
- surviving fraction (RESVERATROL; 1000 nM): 0.998 ± 0.11

Test System: HS578T BREAST
- surviving fraction (DECITABINE; 0.5 nM): 0.882 ± 0.16
- surviving fraction (DECITABINE; 1 nM): 0.838 ± 0.018
- surviving fraction (DECITABINE; 5 nM): 0.812 ± 0.079
- surviving fraction (DECITABINE; 10 nM): 0.837 ± 0.077
- surviving fraction (DECITABINE; 50 nM): 0.98 ± 0.071
- surviving fraction (DECITABINE; 100 nM): 0.943 ± 0.2
- surviving fraction (DECITABINE; 500 nM): 0.905 ± 0.08
- surviving fraction (DECITABINE; 1000 nM): 1.02 ± 0.064
- surviving fraction (RESVERATROL; 0.5 nM): 1.15 ± 0.15
- surviving fraction (RESVERATROL; 1 nM): 1.15 ± 0.036
- surviving fraction (RESVERATROL; 5 nM): 1.24 ± 0.14
- surviving fraction (RESVERATROL; 10 nM): 1.14 ± 0.049
- surviving fraction (RESVERATROL; 50 nM): 1.03 ± 0.074
- surviving fraction (RESVERATROL; 100 nM): 1.27 ± 0.11
- surviving fraction (RESVERATROL; 500 nM): 1.17 ± 0.22
- surviving fraction (RESVERATROL; 1000 nM): 1.12 ± 0.19
